This assay deals with 883617-216-R-J1-PDC complex spheroid viability. In words: Anticancer human tumor 883617-216-R-J1-PDC patient-derived bladder carcinoma cell line growth inhibition [POLQ]. Conditions: for viability, T/C: stronger effect = lower value. The procedure:
Multicellular complex tumor spheroid response to Polymerase (POL) inhibitors (novobiocin, ART-558, RP6685) in combination with a variety of drugs and investigational agents in selected tumor cell lines
The POL inhibitors (novobiocin, ART-558, and RP6685) were evaluated both individually and in combination with standard of care and investigational anticancer small molecules within a complex spheroid model of solid tumors. . Complex spheroids include a stromal component modeled by human endothelial cells (HUVEC) and fibroblasts modeled by human mesenchymal stem cells (MSCs). The concentration ranges selected for each drug and investigational agent were based upon clinically achievable concentrations if the clinical Cmax of the agent was known.
Compounds. The drugs and investigational agents: novobiocin (NSC847541), ART-558 (NSC835418), RP-6685 (NSC848927), peposertib (NSC802822), ceralasertib (NSC780249), elimusertib (NSC800525), camonsertib (NSC841442), AZD-1390 (NSC803789), olaparib (NSC753686), talazoparib (NSC767125), rucaparib (NSC756644), sotorasib (NSC818433), MRTX-1133 (NSC836407), SN-38 (NSC673596), topotecan (NSC609699), epotoside (NSC141540), doxorubicin (NSC123127), gemcitabine (NSC613327), 5-fluorouracil (NSC19893), paclitaxel (NSC125973), vemurafenib (NSC761431), MSA-2 (NSC828583), SN-011 (NSC837082), adavosertib (NSC754352), prexasertib (NSC758257), carboplatin (NSC241240) and oxaliplatin (NSC266046), were obtained from the National Cancer Institute (NCI) Developmental Therapeutics Program Chemical Repository (21). The FDA-approved anticancer drug set is available from the Developmental Therapeutics Program at https://dtp.cancer.gov/organization/dscb/obtaining/. […] The stock solutions were prepared in dimethyl sulfoxide (DMSO, Sigma-Aldrich, St. Louis, MO, cat. D2650), except for the platinum compounds which were prepared in saline (Quality Biological, Gaithersburg, MD, cat. 114-055-101), at 800-fold the tested concentration and stored at -70 degrees C prior to their use. All drugs and investigational agents were tested over a range starting from a high concentration at or near the clinical Cmax and decreasing in half-log increments. If the clinical Cmax for an agent had not been determined, the highest concentration tested was 10 microM, except for SN-38, which was tested at a high concentration of 1 microM.
Cell Culture. All cells were maintained in an incubator at 37 degrees C and 5% CO2 with 95% humidity. The PDC lines were cultured according to standard operating procedures established by the NCI PDMR (https://pdmr.cancer.gov). Table 3 of the manuscript, lists the cell lines along with the number of the three cell types plated to form the mct-spheroids and media for tumor cell growth. After thawing, all PDC lines, except 997537-175-T-J1-PDC and 415267-285-R-J2-PDC, were cultured in Matrigel-coated flasks prepared with a working solution of 1X Ham's F-12 nutrient mix, without supplementation (Thermo Fisher Scientific, cat. 11765054), 100 U/mL penicillin-streptomycin (Thermo Fisher Scientific, cat. 15140122), and 2.5% Matrigel (Corning Inc., Corning, NY, cat. 354248) for the first three passages. The two PDC lines 997537-175-T-J1-PDC and 415267-285-R-J2-PDC were cultured on uncoated flasks. The 857933-349-R-J2-PDC line was cultured in 6C/Colon 1B media containing advanced DMEM/F-12 (Thermo Fisher Scientific, cat. 12634028), 10 mM HEPES (Thermo Fisher Scientific, cat. 15630080), 1X GlutaMAX supplement (Thermo Fisher Scientific, cat. 35050061), 0.1 mg/mL primocin (InvivoGen, San Diego, CA, cat. ant-pm-2), 10% defined fetal bovine serum, heat inactivated (HyClone Laboratories Inc., Logan, UT, cat. SH30070.03HI), 50% L-WRN conditioned media (ATCC, cat. CRL-3276), 1.25 mM N-Acetyl-L-cysteine (Sigma-Aldrich, cat. A9165), 10 mM nicotinamide (Sigma-Aldrich, cat. N0636), 1X B-27 supplement (Thermo Fisher Scientific, cat. 17504044), 1X N-2 supplement (Thermo Fisher Scientific, cat. […]

Setting [1] is: compound alone, run of 01/19/2024.

Where “and” joins values, the source holds several entries; their conditions need not be identical. Identical values can stand only once.
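Note: spheroids exposed to compounds for seven days before readout.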

Turning to `COc1cc(C2c3cc4c(cc3C(OC3OC5COC(C)OC5C(O)C3O)C3COC(=O)C23)OCO4)cc(OC)c1O` (stereo not given), the viability, T/C runs as follows: (compound 0.0316 µM) 99.9% and 95.2% and 109%; (compound 0.1 µM) 86.2% and 78.2% and 89.1%; (compound 0.316 µM) 85.3% and 96.4% and 83.7%; (compound 1 µM) 63.6% and 76.7% and 66.2%; (compound 3.16 µM) 61.5% and 67.9% and 60%; (compound 10 µM) 47.5% and 57.3% and 49.9%. In addition, the concentration for half-maximal inhibition (IC50) (curve of compound) was 8180 nM and > 10000 nM.

With `COc1ccc([C@@H](O)c2cc(-c3ncnc4cc(N5CCOCC5)ccc34)c(F)cc2Cl)nn1`, the viability, T/C was 99% and 86.7% and 96.3% (compound 0.0316 µM); 73% and 81.7% and 93.3% (compound 0.1 µM); 81.5% and 83.3% and 94% (compound 0.316 µM); 62.8% and 61.7% and 69% (compound 1 µM); 48.3% and 47.9% and 48.8% (compound 3.16 µM); 30.1% and 35.8% and 31.2% (compound 10 µM). Also, for the setting “curve of compound”, the IC50 is 2610 nM and 2430 nM and 2720 nM.

In the case of `COc1cccc(OCCCN)c1-c1cc(Nc2cnc(C#N)cn2)n[nH]1`, the viability, T/C is 98.3% and 89.8% and 106% (compound 0.00316 µM); 69.9% and 82.7% and 93.2% (compound 0.01 µM); 52.6% and 55.5% and 49% (compound 0.0316 µM); 40.9% and 44.4% and 45.3% (compound 0.1 µM); 34.2% and 34.5% and 41.7% (compound 0.316 µM); 25% and 30.4% and 35.5% (compound 1 µM). Besides, the IC50 (curve of compound) was 40.6 nM and 57 nM and 31.2 nM.

Turning to `COc1cccc2c1C(=O)c1c(O)c3c(c(O)c1C2=O)CC(O)(C(=O)CO)CC3OC1CC(N)C(O)C(C)O1` (stereo not given), the viability, T/C reads like this: (compound 0.0316 µM) 61.8% and 66.7% and 64%; (compound 0.1 µM) 56.7% and 69.8% and 55.9%; (compound 0.316 µM) 51.5% and 57.7% and 47.7%; (compound 1 µM) 10.3% and 22.2% and 5.53%; (compound 3.16 µM) 0.4% and 0.3% and 0.29%; (compound 10 µM) 0.27% and 0.25% and 0.3%. Also, the IC50 (curve of compound) was 328 nM and 412 nM and 248 nM.

`Cc1cccc(N(C)C(=O)C2C(O)CCN2c2nc(C)cc(C(F)(F)F)c2C#N)c1` (stereo not given): the viability, T/C (compound 0.0316 µM) is 102% [middle of 13 runs]; the viability, T/C (compound 0.316 µM) was 99.2% [middle of 13 runs]; the viability, T/C (compound 1 µM) is 100% [middle of 13 runs]; the viability, T/C (compound 3.16 µM) is 101% [middle of 13 runs]; the viability, T/C (compound 10 µM) is 105% [middle of 13 runs]. In addition, the IC50 reads like this: (compound alone, run of 01/08/2024) greater than 10000 nM; under setting [1], greater than 10000 nM.

Turning to `Cn1ncnc1[C@H]1c2n[nH]c(=O)c3cc(F)cc(c23)N[C@@H]1c1ccc(F)cc1`, the viability, T/C was 94.7% and 100% and 90.6% (compound 0.000316 µM); 85.8% and 100% and 85.9% (compound 0.001 µM); 87.6% and 95.6% and 95.1% (compound 0.00316 µM); 83.5% and 90% and 77.4% (compound 0.01 µM); 70% and 80.9% and 83.5% (compound 0.0316 µM); 65.7% and 71.8% and 69.7% (compound 0.1 µM). Further, the IC50 (curve of compound) was greater than 100 nM.

On to `Nc1ccc(C#CCN(C(=O)Cc2ncc(C(F)(F)F)cc2C(F)(F)F)c2ccc(F)cc2)nn1`, for which the viability, T/C (compound 0.0316 µM) was 102% [middle of 13 runs]; the viability, T/C (compound 0.1 µM) is 98% [middle of 13 runs]; the viability, T/C (compound 0.316 µM) was 102% [middle of 13 runs]; the viability, T/C (compound 1 µM) is 99.9% [middle of 13 runs]; the viability, T/C (compound 3.16 µM) is 104% [middle of 13 runs]; the viability, T/C (compound 10 µM) is 112% [middle of 13 runs]. Under setting [1], the IC50 is greater than 10000 nM.

For `Nc1ccn(C2OC(CO)C(O)C2(F)F)c(=O)n1` (stereo not given), the viability, T/C reads like this: (compound 0.0316 µM) 32.7% and 33% and 32.6%; (compound 0.1 µM) 30.6% and 36.1% and 29.3%; (compound 0.316 µM) 32.9% and 36.7% and 46.2%; (compound 1 µM) 39.7% and 42.4% and 33.9%; (compound 3.16 µM) 36.2% and 41.4% and 31.7%; (compound 10 µM) 26.8% and 42.1% and 30.9%. The IC50 (curve of compound) is less than 31.6 nM.

Take `O=C(c1cc(Cc2n[nH]c(=O)c3ccccc23)ccc1F)N1CCN(C(=O)C2CC2)CC1`: the viability, T/C by setting is: (compound 0.0316 µM) 88.1% and 93% and 83.1%; (compound 0.1 µM) 82.1% and 100% and 97.3%; (compound 0.316 µM) 92.3% and 104% and 81.8%; (compound 1 µM) 87.4% and 87.5% and 87.9%; (compound 3.16 µM) 91% and 82.4% and 88.4%; (compound 10 µM) 58.5% and 61.9% and 69.8%. Also, the IC50 (curve of compound) is greater than 10000 nM.

Regarding `O=c1[nH]cc(F)c(=O)[nH]1`, the viability, T/C is, setting by setting: (compound 0.0316 µM) 108% and 102% and 103%; (compound 0.1 µM) 89.4% and 107% and 89.8%; (compound 0.316 µM) 109% and 106% and 81.9%; (compound 1 µM) 88.9% and 89.1% and 97.6%; (compound 3.16 µM) 79.5% and 85.3% and 88.3%; (compound 10 µM) 65.1% and 78.3% and 64.8%. Also, the IC50 (curve of compound) is greater than 10000 nM.

What is called viability, T/C is the ratio of treated to control. By IC50 is commonly meant the point on the concentration scale where inhibition reaches its midpoint.

The record behind these values is PubChem BioAssay AID1963833 (Molecular Pharmacology Branch, DTP, NCI, 2024).
